{
  "source": "patent US12708632B2",
  "about": "(Jazz Pharmaceuticals Research UK Limited, priority 2020, dated 2026)",
  "test_system": "seizures associated with Cortical Dysplasia and Cortical Brain Malformation",
  "test": "Open label, expanded-access program of botanically derived purified CBD: caregiver-diary seizure frequency",
  "type": "in vivo, human patients",
  "design": "reduction in atonic seizures over the treatment period / reduction in tonic seizures over the treatment period / reduction in focal seizures without impairment over the treatment period: concentration or dose not given beside the values",
  "conditions": "for Seizure frequency: Tonic-clonic: baseline 13.0; for Seizure frequency: Myoclonic: baseline 4.0",
  "experimental": "Subjects were required to be on one or more AEDs at stable doses for a minimum of two weeks prior to baseline and to have stable vagus nerve stimulation (VNS) settings and ketogenic diet ratios for a minimum of four weeks prior to baseline.\nDose was then increased weekly by 5 mg/kg/day to a goal of 20 to 25 mg/kg/day.\nA maximum dose of 50 mg/kg/day could be utilised for patients who were tolerating the medication but had not achieved seizure control; these patients had further weekly titration by 5 mg/kg/day.\nModifications were made to concomitant AEDs as per clinical indication.\nSeizure frequency, intensity, and duration were recorded by caregivers in a diary during a baseline period of at least 28 days. Changes in seizure frequency relative to baseline were calculated after at least 2 weeks and at defined timepoints of treatment.\nPatients may be defined as responders if they had more than 50% reduction in seizure frequency compared to baseline. the percent change in seizure frequency was calculated as follows: […]\nThe percent change of seizure frequency may be calculated for any time interval where seizure number has been recorded. For the purpose of this example the percent change of seizure frequency for the end of the treatment period was calculated as follows: […]",
  "data": [
    {"smiles": "C=C(C)[C@@H]1CCC(C)=C[C@H]1c1c(O)cc(CCCCC)cc1O", "note": "[CBD, cannabidiol]", "values": [
      {"measurement": "Seizure frequency: Atonic", "setting": "Patient 1, 2 weeks, CBD 10.0 mg/kg/day, baseline 2.0", "value": 0.0, "unit": "seizures per week"},
      {"measurement": "Seizure frequency: Tonic-clonic", "setting": "Patient 1, 2 weeks, CBD 10.0 mg/kg/day", "value": 12.0, "unit": "seizures per week"},
      {"measurement": "Seizure frequency: Atonic", "setting": "Patient 1, 4 weeks, CBD 20.0 mg/kg/day, baseline 2.0", "value": 1.0, "unit": "seizures per week"},
      {"measurement": "Seizure frequency: Tonic-clonic", "setting": "Patient 1, 4 weeks, CBD 20.0 mg/kg/day", "value": 25.0, "unit": "seizures per week"},
      {"measurement": "Seizure frequency: Atonic", "setting": "Patient 1, 8 weeks, CBD 25.0 mg/kg/day, baseline 2.0", "value": 3.0, "unit": "seizures per week"},
      {"measurement": "Seizure frequency: Tonic-clonic", "setting": "Patient 1, 8 weeks, CBD 25.0 mg/kg/day", "value": 17.0, "unit": "seizures per week"},
      {"measurement": "Seizure frequency: Atonic", "setting": "Patient 1, 12 weeks, CBD 25.0 mg/kg/day, baseline 2.0", "value": 1.0, "unit": "seizures per week"},
      {"measurement": "Seizure frequency: Tonic-clonic", "setting": "Patient 1, 12 weeks, CBD 25.0 mg/kg/day", "value": 16.0, "unit": "seizures per week"},
      {"measurement": "reduction in atonic seizures over the treatment period", "setting": "Patient 1, treated for 12 weeks, vs baseline", "value": 50, "unit": "%"},
      {"measurement": "Seizure frequency: Tonic", "setting": "Patient 2, 12 weeks, CBD 5.0 mg/kg/day, baseline 140.0", "value": 70.0, "unit": "seizures per week"},
      {"measurement": "reduction in tonic seizures over the treatment period", "setting": "Patient 2, treated for 12 weeks, vs baseline", "value": 50, "unit": "%"},
      {"measurement": "Seizure frequency: Myoclonic", "setting": "Patient 3, 4 weeks, CBD 20.0 mg/kg/day", "value": 0.0, "unit": "seizures per week"},
      {"measurement": "Seizure frequency: Tonic", "setting": "Patient 3, 4 weeks, CBD 20.0 mg/kg/day, baseline 20.0", "value": 4.0, "unit": "seizures per week"},
      {"measurement": "Seizure frequency: Atonic", "setting": "Patient 3, 4 weeks, CBD 20.0 mg/kg/day, baseline 24.0", "value": 0.0, "unit": "seizures per week"},
      {"measurement": "Seizure frequency: Myoclonic", "setting": "Patient 3, 8 weeks, CBD 25.0 mg/kg/day", "value": 0.0, "unit": "seizures per week"},
      {"measurement": "Seizure frequency: Tonic", "setting": "Patient 3, 8 weeks, CBD 25.0 mg/kg/day, baseline 20.0", "value": 200.0, "unit": "seizures per week"},
      {"measurement": "Seizure frequency: Atonic", "setting": "Patient 3, 8 weeks, CBD 25.0 mg/kg/day, baseline 24.0", "value": 0.0, "unit": "seizures per week"},
      {"measurement": "Seizure frequency: Myoclonic", "setting": "Patient 3, 12 weeks, CBD 14.8 mg/kg/day", "value": 56.0, "unit": "seizures per week"},
      {"measurement": "Seizure frequency: Tonic", "setting": "Patient 3, 12 weeks, CBD 14.8 mg/kg/day, baseline 20.0", "value": 140.0, "unit": "seizures per week"},
      {"measurement": "Seizure frequency: Atonic", "setting": "Patient 3, 12 weeks, CBD 14.8 mg/kg/day, baseline 24.0", "value": 12.0, "unit": "seizures per week"},
      {"measurement": "Seizure frequency: Myoclonic", "setting": "Patient 3, 24 weeks, CBD 9.7 mg/kg/day", "value": 28.0, "unit": "seizures per week"},
      {"measurement": "Seizure frequency: Tonic", "setting": "Patient 3, 24 weeks, CBD 9.7 mg/kg/day, baseline 20.0", "value": 140.0, "unit": "seizures per week"},
      {"measurement": "Seizure frequency: Atonic", "setting": "Patient 3, 24 weeks, CBD 9.7 mg/kg/day, baseline 24.0", "value": 12.0, "unit": "seizures per week"},
      {"measurement": "Seizure frequency: Myoclonic", "setting": "Patient 3, 36 weeks, CBD 10.9 mg/kg/day", "value": 0.0, "unit": "seizures per week"},
      {"measurement": "Seizure frequency: Tonic", "setting": "Patient 3, 36 weeks, CBD 10.9 mg/kg/day, baseline 20.0", "value": 60.0, "unit": "seizures per week"},
      {"measurement": "Seizure frequency: Atonic", "setting": "Patient 3, 36 weeks, CBD 10.9 mg/kg/day, baseline 24.0", "value": 16.0, "unit": "seizures per week"},
      {"measurement": "Seizure frequency: Myoclonic", "setting": "Patient 3, 48 weeks, CBD 10.6 mg/kg/day", "value": 20.0, "unit": "seizures per week"},
      {"measurement": "Seizure frequency: Tonic", "setting": "Patient 3, 48 weeks, CBD 10.6 mg/kg/day, baseline 20.0", "value": 40.0, "unit": "seizures per week"},
      {"measurement": "Seizure frequency: Atonic", "setting": "Patient 3, 48 weeks, CBD 10.6 mg/kg/day, baseline 24.0", "value": 8.0, "unit": "seizures per week"},
      {"measurement": "Seizure frequency: Myoclonic", "setting": "Patient 3, 60 weeks, CBD 17.1 mg/kg/day", "value": 1.0, "unit": "seizures per week"},
      {"measurement": "Seizure frequency: Tonic", "setting": "Patient 3, 60 weeks, CBD 17.1 mg/kg/day, baseline 20.0", "value": 28.0, "unit": "seizures per week"},
      {"measurement": "Seizure frequency: Atonic", "setting": "Patient 3, 60 weeks, CBD 17.1 mg/kg/day, baseline 24.0", "value": 1.0, "unit": "seizures per week"},
      {"measurement": "Seizure frequency: Myoclonic", "setting": "Patient 3, 72 weeks, CBD 16.2 mg/kg/day", "value": 1.0, "unit": "seizures per week"},
      {"measurement": "Seizure frequency: Tonic", "setting": "Patient 3, 72 weeks, CBD 16.2 mg/kg/day, baseline 20.0", "value": 40.0, "unit": "seizures per week"},
      {"measurement": "Seizure frequency: Atonic", "setting": "Patient 3, 72 weeks, CBD 16.2 mg/kg/day, baseline 24.0", "value": 1.0, "unit": "seizures per week"},
      {"measurement": "Seizure frequency: Myoclonic", "setting": "Patient 3, 96 weeks, CBD 24.5 mg/kg/day", "value": 16.0, "unit": "seizures per week"},
      {"measurement": "Seizure frequency: Tonic", "setting": "Patient 3, 96 weeks, CBD 24.5 mg/kg/day, baseline 20.0", "value": 28.0, "unit": "seizures per week"},
      {"measurement": "Seizure frequency: Atonic", "setting": "Patient 3, 96 weeks, CBD 24.5 mg/kg/day, baseline 24.0", "value": 2.0, "unit": "seizures per week"},
      {"measurement": "Seizure frequency: Myoclonic", "setting": "Patient 3, 120 weeks, CBD 17.7 mg/kg/day", "value": 16.0, "unit": "seizures per week"},
      {"measurement": "Seizure frequency: Tonic", "setting": "Patient 3, 120 weeks, CBD 17.7 mg/kg/day, baseline 20.0", "value": 6.0, "unit": "seizures per week"},
      {"measurement": "Seizure frequency: Atonic", "setting": "Patient 3, 120 weeks, CBD 17.7 mg/kg/day, baseline 24.0", "value": 4.0, "unit": "seizures per week"},
      {"measurement": "Seizure frequency: Myoclonic", "setting": "Patient 3, 132 weeks, CBD 17.3 mg/kg/day", "value": 16.0, "unit": "seizures per week"},
      {"measurement": "Seizure frequency: Tonic", "setting": "Patient 3, 132 weeks, CBD 17.3 mg/kg/day, baseline 20.0", "value": 6.0, "unit": "seizures per week"},
      {"measurement": "Seizure frequency: Atonic", "setting": "Patient 3, 132 weeks, CBD 17.3 mg/kg/day, baseline 24.0", "value": 4.0, "unit": "seizures per week"},
      {"measurement": "Seizure frequency: Myoclonic", "setting": "Patient 3, 144 weeks, CBD 19.9 mg/kg/day", "value": 40.0, "unit": "seizures per week"},
      {"measurement": "Seizure frequency: Tonic", "setting": "Patient 3, 144 weeks, CBD 19.9 mg/kg/day, baseline 20.0", "value": 56.0, "unit": "seizures per week"},
      {"measurement": "Seizure frequency: Atonic", "setting": "Patient 3, 144 weeks, CBD 19.9 mg/kg/day, baseline 24.0", "value": 2.0, "unit": "seizures per week"},
      {"measurement": "reduction in atonic seizures over the treatment period", "setting": "Patient 3, treated for 144 weeks, vs baseline", "value": 91.7, "unit": "%"},
      {"measurement": "Seizure frequency: Tonic", "setting": "Patient 4, 4 weeks, CBD 20.0 mg/kg/day, baseline 196.0", "value": 60.0, "unit": "seizures per week"},
      {"measurement": "Seizure frequency: Tonic", "setting": "Patient 4, 8 weeks, CBD 25.0 mg/kg/day, baseline 196.0", "value": 40.0, "unit": "seizures per week"},
      {"measurement": "Seizure frequency: Tonic", "setting": "Patient 4, 12 weeks, CBD 30.0 mg/kg/day, baseline 196.0", "value": 80.0, "unit": "seizures per week"},
      {"measurement": "Seizure frequency: Tonic", "setting": "Patient 4, 24 weeks, CBD 50.0 mg/kg/day, baseline 196.0", "value": 24.0, "unit": "seizures per week"},
      {"measurement": "Seizure frequency: Tonic", "setting": "Patient 4, 36 weeks, CBD 50.0 mg/kg/day, baseline 196.0", "value": 32.0, "unit": "seizures per week"},
      {"measurement": "Seizure frequency: Tonic", "setting": "Patient 4, 48 weeks, CBD 50.0 mg/kg/day, baseline 196.0", "value": 54.0, "unit": "seizures per week"},
      {"measurement": "Seizure frequency: Tonic", "setting": "Patient 4, 60 weeks, CBD 50.0 mg/kg/day, baseline 196.0", "value": 24.0, "unit": "seizures per week"},
      {"measurement": "Seizure frequency: Tonic", "setting": "Patient 4, 72 weeks, CBD 49.0 mg/kg/day, baseline 196.0", "value": 24.0, "unit": "seizures per week"},
      {"measurement": "Seizure frequency: Tonic", "setting": "Patient 4, 84 weeks, CBD 46.0 mg/kg/day, baseline 196.0", "value": 36.0, "unit": "seizures per week"}
    ]}
  ]
}
